Values of other authors as cited in US20130309220A1, “COMPOSITIONS FOR TREATING MICROBIAL INFECTIONS” (priority 2012, published 2013).

CCC(=O)O[C@]1(C(=O)SCF)[C@H](C)C[C@H]2[C@@H]3C[C@H](F)C4=CC(=O)C=C[C@]4(C)[C@@]3(F)[C@@H](O)C[C@@]21C [Fluticasone propionate, S-(fluromethyl)6α,9-difluoro-11β-17-dihydroxy-16α-methyl-3-oxoandrosta-1,4-diene-17β-carbothioate,17-propionate]
solubility in 95% ethanol (95% ethanol): slightly soluble
solubility in dimethyl sulfoxide (dimethyl sulfoxide): freely soluble
solubility in dimethylformamide (dimethylformamide): freely soluble
solubility in methanol (methanol): slightly soluble
solubility in water (water): practically insoluble
